# Test: Henry solubility constant Hcp at 298.15 K (mol/(m3 Pa))
# Conditions: reference: Bamford et al. (1999a)
row,Compound,Henry solubility constant Hcp
1,c1ccc2c(c1)ccc1c3ccccc3ccc21 [chrysene],1.9
2,Cc1cccc2ccccc12 [1-methylnaphthalene],0.021
3,c1cc2c3c(cccc3c1)CC2 [acenaphthene],0.054
4,c1ccc2c(c1)-c1cccc3cccc-2c13 [benzo[jk]fluorene],0.51
5,C1=Cc2cccc3cccc1c23 [acenaphthylene],0.079
6,c1ccc2c(c1)Cc1c-2ccc2ccccc12 [benzo[a]fluorene],0.37
7,"c1ccc2c(c1)Cc1ccccc1-2 [2,3-benzindene]",0.1
8,Cc1cccc2c1ccc1ccccc12 [1-methylphenanthrene],0.2
9,c1ccc2c(c1)ccc1ccccc12 [phenanthrene],0.23
10,c1ccc2cc3ccccc3cc2c1 [anthracene],0.18
11,Cc1ccc2ccccc2c1 [2-methylnaphthalene],0.019
